Laboratory results taken from patent US12018023B2 (NERVIANO MEDICAL SCIENCES S.R.L., priority 2018, dated 2024).

Experiments:
Type in all cases: biochemical
[1] = target: T1, IDH1^R132H homodimer enzyme (Homo sapiens, UniProt O75874, R132H); assay: NADPH depletion assay, IDH1 R132H
T1 construct: purchased not specified
Procedure, shortened: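 IDH1 R132H enzyme (8 nM as diluted) in Tris-HCl pH 7.6 with 10 mM MgCl2, 0.001% Triton X-100 and 4 mM β-mercaptoethanol is preincubated 15 min at RT with compound. Substrate mix (12 uM NADPH, 3.4 mM α-ketoglutarate) is added for 60 min; remaining NAD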

IDH1^R132C = target: T2, IDH1^R132C (Homo sapiens, UniProt O75874, R132C); assay: NADPH depletion assay, IDH1 R132C
T2 construct: purchased not specified
T2 sequence (O75874 whole entry R132C): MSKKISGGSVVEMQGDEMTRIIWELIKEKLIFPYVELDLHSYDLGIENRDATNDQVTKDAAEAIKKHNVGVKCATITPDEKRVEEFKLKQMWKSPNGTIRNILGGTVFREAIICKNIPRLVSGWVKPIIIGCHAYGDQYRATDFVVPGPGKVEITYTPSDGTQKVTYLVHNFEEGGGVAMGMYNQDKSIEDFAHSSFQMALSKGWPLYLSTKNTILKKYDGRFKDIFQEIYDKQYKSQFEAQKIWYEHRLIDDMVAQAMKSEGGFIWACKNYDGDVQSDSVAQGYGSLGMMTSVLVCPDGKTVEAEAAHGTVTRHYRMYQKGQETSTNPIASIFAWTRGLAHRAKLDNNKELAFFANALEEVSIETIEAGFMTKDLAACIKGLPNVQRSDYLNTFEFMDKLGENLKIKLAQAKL
Procedure, shortened: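 IDH1 R132C (2 nM) preincubated 15 min at RT with compound in Tris-HCl pH 7.6/MgCl2 buffer, then 60 min RT with NADPH and 0.14 mM alpha-ketoglutarate. Remaining NADPH read by diaphorase/resazurin fluorescence (Ex544/Em590).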

IDH2^R172K = target: T3, IDH2^R172K (Homo sapiens, UniProt P48735, R172K); assay: NADPH depletion assay, IDH2 R172K
T3 construct: purchased not specified
T3 sequence (P48735 40-452 R172K): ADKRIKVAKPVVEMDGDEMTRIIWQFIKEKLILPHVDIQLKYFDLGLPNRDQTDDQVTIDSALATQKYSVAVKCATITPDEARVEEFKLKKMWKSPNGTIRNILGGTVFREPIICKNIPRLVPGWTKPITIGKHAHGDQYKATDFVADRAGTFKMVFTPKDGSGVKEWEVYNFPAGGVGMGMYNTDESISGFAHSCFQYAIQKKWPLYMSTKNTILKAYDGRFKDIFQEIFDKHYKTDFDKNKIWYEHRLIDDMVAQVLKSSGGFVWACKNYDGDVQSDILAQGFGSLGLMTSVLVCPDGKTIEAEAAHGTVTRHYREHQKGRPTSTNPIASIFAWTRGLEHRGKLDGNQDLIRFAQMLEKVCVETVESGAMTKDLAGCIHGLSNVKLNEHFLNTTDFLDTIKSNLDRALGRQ
Description: IDH mutated enzyme activity converting alpha-ketoglutarate to 2-hydroxyglutaric acid is measured using a NADPH depletion assay. In the assay the remaining cofactor is measured at the end of the reaction with the addition of a catalytic excess of diaphorase and resazurin, to generate a fluorescent signal in proportion to the amount of NADPH remaining. IDH1 WT enzyme as well as mutated isoforms IDH1^R132H, IDH1^R132C, and IDH^2R172K enzymes are commercially available proteins (see e.g. Sino Biological, Abcam, Active Motif or Creative BioMart).
IDH1^R132H homodimer enzyme are diluted to 8 nM, in 10 μL of Assay Buffer (150 mM NaCl, 50 mM Tris-HCl pH 7.6, 10 mM MgCl2, 0.001% Triton X-100, 4 mM β-mercaptoethanol); 0.2 uL of test compound, previously serially diluted 1 to 3, >10 experimental points from 1 mM in DMSO, is added and the mixture is incubated for 15 minutes at room temperature. The reaction is started with the addition of 10 μL of Substrate Mix (12 uM NADPH, 3.4 mM alpha-ketoglutarate in Assay Buffer) and the mixture is incubated for 60 minutes at room temperature. The reaction is terminated with the addition of 5 μl of Detection Buffer (100 μg/mL diaphorase, 30 μM resazurin, in IX Assay Buffer), and is incubated for 15 minute before reading on a ViewLux as platereader at Ex544/Em590.
Compounds are assayed for their activity against IDH2^R172K following the same assay as above with the following modifications: IDH2^R172K and alpha-ketoglutarate final concentrations in the Assay Buffer is 16 nM and 0.55 mM, respectively.

T1 sequence (O75874 whole entry R132H): as the sequence (O75874 whole entry R132C) above, with C132H counted along it

Compound	IC50 [1]	IC50 (IDH1^R132C)	IC50 (IDH2^R172K)
CCn1c(=O)ccc2cnc(N[C@@H](C)c3ccc(Cl)cc3)nc21 [cpd 14, 2-{[(1S)-1-(4-chlorophenyl)ethyl]amino}-8-ethylpyrido[2,3-d]pyrimidin-7(8H)-one]	1740 nM	850 nM	5730 nM
COC(=O)c1ccc([C@H](C)Nc2ncc3ccc(=O)n(CC(C)(C)C)c3n2)cc1 [cpd 11, methyl 4-[(1S)-1-{[8-(2,2-dimethylpropyl)-7-oxo-pyrido[2,3-d]pyrimidin-2-yl]amino}ethyl]benzoate]	362 nM	181 nM	6100 nM
C[C@H](Nc1ncc2ccc(=O)n(Cc3cccc(C(F)(F)F)c3)c2n1)c1ccc(Cl)cc1 [cpd 24, 2-{[(1S)-1-(4-chlorophenyl)ethyl]amino}-8-[3-(trifluoromethyl)benzyl]pyrido[2,3-d]pyrimidin-7(8H)-one]	3530 nM	1720 nM	2960 nM
CCn1c(=O)ccc2cnc(N[C@@H](C)C3CCCCC3)nc21 [cpd 12, 2-{[(1S)-1-cyclohexylethyl]amino}-8-ethylpyrido[2,3-d]pyrimidin-7(8H)-one]	3480 nM	1780 nM	5020 nM
COc1cccc(Cn2c(=O)ccc3cnc(N[C@@H](C)c4ccc(Cl)cc4)nc32)c1 [cpd 30, 2-{[(1S)-1-(4-chlorophenyl)ethyl]amino}-8-(3-methoxybenzyl)pyrido[2,3-d]pyrimidin-7(8H)-one]	1340 nM	406 nM	2520 nM
C[C@H](Nc1ncc2ccc(=O)n(Cc3c(F)cccc3F)c2n1)c1ccc(Cl)cc1 [cpd 31, 2-{[(1S)-1-(4-chlorophenyl)ethyl]amino}-8-(2,6-difluorobenzyl)pyrido[2,3-d]pyrimidin-7(8H)-one]	323 nM	147 nM	2200 nM
CC(C)Cn1c(=O)ccc2cnc(N[C@@H](C)c3ccc(CN4CCC(F)(F)CC4)cc3)nc21 [cpd 95, 2-{[(1S)-1-{4-[(4,4-difluoropiperidin-1-yl)methyl]phenyl}ethyl]amino}-8-(2-methylpropyl)pyrido[2,3-d]pyrimidin-7(8H)-one]	425 nM	162 nM	5160 nM
C[C@H](Nc1ncc2ccc(=O)n(CC(C)(C)C)c2n1)c1ccc(Br)cc1 [cpd 34, 2-{[(1S)-1-(4-bromophenyl)ethyl]amino}-8-(2,2-dimethylpropyl)pyrido[2,3-d]pyrimidin-7(8H)-one]	219 nM	135 nM	3350 nM
CC(Nc1ncc2ccc(=O)n(Cc3ccccc3)c2n1)c1ccc(CN2CCC(F)(F)CC2)cc1 (stereo not drawn) [cpd 96, 8-benzyl-2-[(1-{4-[(4,4-difluoropiperidin-1-yl)methyl]phenyl}ethyl)amino]pyrido[2,3-d]pyrimidin-7(8H)-one]	801 nM	420 nM	5020 nM
CCCn1c(=O)ccc2cnc(N[C@@H](C)c3ccc(CN4CCC(F)(F)CC4)cc3)nc21 [cpd 101, 2-{[(1S)-1-{4-[(4,4-difluoropiperidin-1-yl)methyl]phenyl}ethyl]amino}-8-propylpyrido[2,3-d]pyrimidin-7(8H)-one]	575 nM	271 nM	2670 nM
CC(Nc1ncc2ccc(=O)n(Cc3ccccc3F)c2n1)c1ccc(CN2CCC(F)(F)CC2)cc1 (stereo not drawn) [cpd 97, 2-[(1-{4-[(4,4-difluoropiperidin-1-yl)methyl]phenyl}ethyl)amino]-8-(2-fluorobenzyl)pyrido[2,3-d]pyrimidin-7(8H)-one]	524 nM	323 nM	5030 nM

Further lines, results first:

IC50 [1]	IC50 (IDH1^R132C)	IC50 (IDH2^R172K)	Compound
1940 nM	3600 nM	679 nM	C=CC(=O)N1CCN(C(=O)c2ccc([C@H](C)Nc3ncc4ccc(=O)n(CC)c4n3)cc2)CC1 [cpd 190, 2-{[(1S)-1-{4-[(4-acryloylpiperazin-1-yl)carbonyl]phenyl}ethyl]amino}-8-ethylpyrido[2,3-d]pyrimidin-7(8H)-one]
1400 nM	1530 nM	717 nM	C=CC(=O)N1CCN(Cc2ccc([C@H](C)Nc3ncc4ccc(=O)n([C@@H](C)CO)c4n3)cc2)CC1 [cpd 199, 2-{[(1S)-1-{4-[(4-acryloylpiperazin-1-yl)methyl]phenyl}ethyl]amino}-8-[(2S)-1-hydroxypropan-2-yl]pyrido[2,3-d]pyrimidin-7(8H)-one]
132 nM	401 nM	248 nM	C=CC(=O)N1CCN(Cc2ccc([C@H](C)Nc3ncc4ccc(=O)n([C@@H](C)CF)c4n3)cc2)CC1 [cpd 198, 2-{[(1S)-1-{4-[(4-acryloylpiperazin-1-yl)methyl]phenyl}ethyl]amino}-8-[(2S)-1-fluoropropan-2-yl]pyrido[2,3-d]pyrimidin-7(8H)-one]
338 nM	200 nM	1790 nM	C=CC(=O)N1CC=C(c2ccc([C@H](C)Nc3ncc4ccc(=O)n([C@@H](C)C(C)C)c4n3)nc2)CC1 [cpd 194, 2-{[(1S)-1-(1′-acryloyl-1′,2′,3′,6′-tetrahydro-3,4′-bipyridin-6-yl)ethyl]amino}-8-[(2S)-3-methylbutan-2-yl]pyrido [2,3-d]pyrimidin-7(8H)-one]
1230 nM	667 nM	2910 nM	C[C@H](Nc1ncc2ccc(=O)n(CC(F)(F)F)c2n1)c1ccc(CN2CCC(F)(F)CC2)cc1 [cpd 106, 2-{[(1S)-1-{4-[(4,4-difluoropiperidin-1-yl)methyl]phenyl)ethyl]amino)-8-(2,2,2-trifluoroethyl)pyrido[2,3-d]pyrimidin-7(8H)-one]
85 nM	48 nM	3330 nM	CC[C@@H](C)n1c(=O)ccc2cnc(N[C@@H](C)c3ccc(CN4CCCC(F)(F)C4)cc3)nc21 [cpd 149, 8-[(2R)-butan-2-yl]-2-{[(1S)-1-{4-[(3,3-difluoropiperidin-1-yl)methyl]phenyl}ethyl]amino}pyrido[2,3-d]pyrimidin-7(8H)-one]
227 nM	252 nM	645 nM	C=CC(=O)N1CCC(NC(=O)c2ccc([C@H](C)Nc3ncc4ccc(=O)n(C(C)C)c4n3)cc2F)CC1 [cpd 192, N-(1-acryloylpiperidin-4-yl)-2-fluoro-4-[(1S)-1-{[7-oxo-8-(propan-2-yl)-7,8-dihydropyrido[2,3-d]pyrimidin-2-yl]amino}ethyl]benzamide]
158 nM	65 nM	5620 nM	C[C@H](Nc1ncc2ccc(=O)n(CC(C)(C)C)c2n1)c1ccc(CN2CCC(F)(F)CC2)cc1F [cpd 152, 2-{[(1S)-1-{4-[(4,4-difluoropiperidin-1-yl)methyl]-2-fluorophenyl}ethyl]amino}-8-(2,2-dimethylpropyl)pyrido [2,3-d]pyrimidin-7(8H)-one]
187 nM	109 nM	5830 nM	C[C@H](Nc1ncc2ccc(=O)n(CC(C)(C)C)c2n1)c1ccc(CN2CCC(F)(F)C2)cc1 [cpd 148, 2-{[(1S)-1-{4-[(3,3-difluoropyrrolidin-1-yl)methyl]phenyl}ethyl]amino}-8-(2,2-dimethylpropyl)pyrido[2,3-d]pyrimidin-7(8H)-one]
218 nM	141 nM	5050 nM	C[C@H](Nc1ncc2ccc(=O)n(CC(C)(C)C)c2n1)c1ccc(-c2ccsc2)cc1 [cpd 133, 8-(2,2-dimethylpropyl)-2-({(1S)-1-[4-(thiophen-3-yl)phenyl]ethyl}amino)pyrido[2,3-d]pyrimidin-7(8H)-one]
163 nM	87 nM	6600 nM	CC(C)[C@H](C)n1c(=O)ccc2cnc(N[C@@H](C)c3ccc(Br)cc3)nc21 [cpd 163, 2-{[(1S)-1-(4-bromophenyl)ethyl]amino}-8-[(2S)-3-methylbutan-2-yl]pyrido[2,3-d]pyrimidin-7(8H)-one]
